This passage reports IC50 results from ChEMBL document CHEMBL5131530, “5-Oxopyrrolidine-3-carboxamides as Nav1.8 Inhibitors for Treating Pain Disorders, Cough Disorders, and Acute and Chronic Itch Disorders” (ACS Med Chem Lett, 2022).

Molecules are shown by their SMILES.

For the assay, the target named is Sodium channel protein type 10 subunit alpha (Homo sapiens, UniProt Q9Y5Y9). Kind of assay: Inhibition of human Nav1.8 channel stably expressed in HEK293 cells assessed as sodium current flow at holding potential of -90mV by whole-cell voltage clamp assay. The class given is cell-based.
Sequence of Sodium channel protein type 10 subunit alpha (Q9Y5Y9 whole entry, looked up): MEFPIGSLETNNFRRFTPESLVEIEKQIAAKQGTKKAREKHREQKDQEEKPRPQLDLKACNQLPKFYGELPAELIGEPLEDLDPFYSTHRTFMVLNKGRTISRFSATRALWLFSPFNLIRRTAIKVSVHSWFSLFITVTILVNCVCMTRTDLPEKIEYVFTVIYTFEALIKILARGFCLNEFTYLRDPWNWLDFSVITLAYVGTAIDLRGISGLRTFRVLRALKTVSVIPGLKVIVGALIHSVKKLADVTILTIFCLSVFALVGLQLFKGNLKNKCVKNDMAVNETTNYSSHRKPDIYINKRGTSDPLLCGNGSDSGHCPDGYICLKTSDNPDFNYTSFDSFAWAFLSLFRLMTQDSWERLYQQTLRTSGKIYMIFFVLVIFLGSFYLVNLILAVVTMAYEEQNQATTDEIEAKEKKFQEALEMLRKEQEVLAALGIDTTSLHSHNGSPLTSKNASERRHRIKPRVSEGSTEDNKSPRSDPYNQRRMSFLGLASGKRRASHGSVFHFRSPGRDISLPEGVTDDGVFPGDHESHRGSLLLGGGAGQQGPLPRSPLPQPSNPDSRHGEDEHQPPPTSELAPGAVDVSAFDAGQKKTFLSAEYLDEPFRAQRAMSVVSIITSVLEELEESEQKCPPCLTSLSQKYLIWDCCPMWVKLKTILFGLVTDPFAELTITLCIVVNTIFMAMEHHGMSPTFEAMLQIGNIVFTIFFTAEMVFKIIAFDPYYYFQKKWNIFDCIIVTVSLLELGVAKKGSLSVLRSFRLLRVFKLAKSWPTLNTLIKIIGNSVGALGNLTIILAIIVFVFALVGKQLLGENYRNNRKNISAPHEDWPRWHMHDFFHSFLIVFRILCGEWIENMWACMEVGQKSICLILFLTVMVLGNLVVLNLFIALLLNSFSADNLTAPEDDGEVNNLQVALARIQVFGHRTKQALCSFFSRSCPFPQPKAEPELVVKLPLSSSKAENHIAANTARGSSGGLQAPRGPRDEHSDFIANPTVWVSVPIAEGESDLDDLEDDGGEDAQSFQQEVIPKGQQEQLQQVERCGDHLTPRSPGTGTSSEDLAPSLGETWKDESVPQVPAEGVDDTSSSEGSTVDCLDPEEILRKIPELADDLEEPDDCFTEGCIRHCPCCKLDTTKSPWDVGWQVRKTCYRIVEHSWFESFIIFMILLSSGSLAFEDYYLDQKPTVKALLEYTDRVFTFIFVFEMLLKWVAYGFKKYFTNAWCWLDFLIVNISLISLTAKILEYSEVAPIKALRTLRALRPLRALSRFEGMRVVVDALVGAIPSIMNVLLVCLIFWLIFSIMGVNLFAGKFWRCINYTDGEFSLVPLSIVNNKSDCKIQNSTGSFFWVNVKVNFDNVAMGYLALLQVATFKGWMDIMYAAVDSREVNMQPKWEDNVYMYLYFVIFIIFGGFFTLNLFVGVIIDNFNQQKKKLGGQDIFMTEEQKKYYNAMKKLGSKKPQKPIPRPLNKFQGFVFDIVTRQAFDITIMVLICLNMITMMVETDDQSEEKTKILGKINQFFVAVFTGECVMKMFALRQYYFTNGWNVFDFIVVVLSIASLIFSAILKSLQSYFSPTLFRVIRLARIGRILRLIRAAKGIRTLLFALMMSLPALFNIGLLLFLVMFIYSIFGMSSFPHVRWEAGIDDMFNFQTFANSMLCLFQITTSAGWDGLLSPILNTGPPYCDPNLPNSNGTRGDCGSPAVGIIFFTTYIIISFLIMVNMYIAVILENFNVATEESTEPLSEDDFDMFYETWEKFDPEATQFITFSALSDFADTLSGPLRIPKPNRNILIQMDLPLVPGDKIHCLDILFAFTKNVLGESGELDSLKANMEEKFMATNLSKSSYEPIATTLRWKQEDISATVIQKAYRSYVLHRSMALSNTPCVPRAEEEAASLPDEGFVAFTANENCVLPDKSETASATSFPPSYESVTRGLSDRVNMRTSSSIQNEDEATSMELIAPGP

Usually IC50 stands for the point on the concentration scale where inhibition reaches its midpoint. On to `O=C1C[C@H](C(=O)NC(c2ccc(F)c(Cl)c2)c2ccc(F)c(C(F)(F)F)n2)CN1` (stereo partly specified), for which the IC50 came out at 2.9 nM. Under `O=C1C[C@H](C(=O)NC(c2cnc(C(F)(F)F)c(Cl)c2)c2ccc(F)c(Cl)c2F)CN1` (stereo partly specified) stands 4.2 nM; under `O=C1C[C@H](C(=O)NC(c2ccc(Cl)cc2)c2ccc(Cl)c(C(F)(F)F)c2)CN1` (stereo partly specified), 1.2 nM; under `O=C1C[C@H](C(=O)NC(c2ccc(Cl)cc2)c2ccc(F)c(C(F)(F)F)c2)CN1` (stereo partly specified), 2.6 nM. As for `O=C1C[C@H](C(=O)NC(c2ccc(Cl)cc2)c2ccc(OC(F)(F)F)cc2)CN1` (stereo partly specified), the 50% inhibitory concentration (IC50) is 4.1 nM.

With `O=C1C[C@H](C(=O)NC(c2ccc(Cl)cc2)c2ccc(F)c(Cl)c2)CN1` (stereo partly specified), the IC50 was determined as 3.4 nM.
